Test results published in the kinase profiling compilation of Christmann-Franck et al. (2016).

How the values were obtained:
Experiment in all cases: radiometric filter-binding kinase assay, Kinase HotSpot
Settings in all cases: compound 0.5 µM; ATP 10 µM
[1] = target: ADRBK1 (human) (UniProt P25098)
[2] = target: CAMK1G (human) (UniProt Q96NX5)
[3] = target: CAMK2D (human) (UniProt Q13557)
[4] = target: CAMK2G (human) (UniProt Q13555)
[5] = target: CDC42BPA (human) (UniProt Q5VT25)
[6] = target: CSNK1G2 (human) (UniProt P78368)
[7] = target: DYRK1B (human) (UniProt Q9Y463)
[8] = target: EPHA1 (human) (UniProt P21709)
Sequence of EPHA1 (human) (P21709 whole entry, looked up): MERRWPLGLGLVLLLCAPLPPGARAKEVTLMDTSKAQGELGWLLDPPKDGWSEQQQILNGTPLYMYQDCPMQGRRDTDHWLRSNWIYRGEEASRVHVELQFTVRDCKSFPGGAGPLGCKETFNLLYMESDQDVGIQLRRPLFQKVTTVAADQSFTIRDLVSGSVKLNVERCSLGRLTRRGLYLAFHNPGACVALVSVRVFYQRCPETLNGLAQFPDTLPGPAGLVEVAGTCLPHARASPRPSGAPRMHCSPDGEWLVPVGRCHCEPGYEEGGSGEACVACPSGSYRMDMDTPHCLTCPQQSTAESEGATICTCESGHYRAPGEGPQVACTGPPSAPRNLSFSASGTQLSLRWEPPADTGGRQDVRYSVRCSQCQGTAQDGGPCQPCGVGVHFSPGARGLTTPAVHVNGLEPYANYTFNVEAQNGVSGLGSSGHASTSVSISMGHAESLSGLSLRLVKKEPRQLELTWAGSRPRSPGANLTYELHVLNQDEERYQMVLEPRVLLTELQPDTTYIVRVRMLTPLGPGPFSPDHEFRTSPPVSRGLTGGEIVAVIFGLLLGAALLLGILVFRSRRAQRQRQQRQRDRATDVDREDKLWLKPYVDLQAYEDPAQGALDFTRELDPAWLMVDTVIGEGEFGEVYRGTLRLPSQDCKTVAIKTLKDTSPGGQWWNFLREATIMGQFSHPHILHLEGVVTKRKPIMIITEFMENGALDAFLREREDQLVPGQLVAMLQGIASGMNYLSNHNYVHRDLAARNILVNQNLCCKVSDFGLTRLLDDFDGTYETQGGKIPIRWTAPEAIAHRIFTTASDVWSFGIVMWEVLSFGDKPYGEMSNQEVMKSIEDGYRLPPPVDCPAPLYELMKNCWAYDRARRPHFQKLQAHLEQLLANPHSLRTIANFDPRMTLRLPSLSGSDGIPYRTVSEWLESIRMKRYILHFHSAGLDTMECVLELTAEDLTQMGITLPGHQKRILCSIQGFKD

[9] = target: EPHA7 (human) (UniProt Q15375)
Sequence of EPHA7 (human) (Q15375 whole entry, looked up): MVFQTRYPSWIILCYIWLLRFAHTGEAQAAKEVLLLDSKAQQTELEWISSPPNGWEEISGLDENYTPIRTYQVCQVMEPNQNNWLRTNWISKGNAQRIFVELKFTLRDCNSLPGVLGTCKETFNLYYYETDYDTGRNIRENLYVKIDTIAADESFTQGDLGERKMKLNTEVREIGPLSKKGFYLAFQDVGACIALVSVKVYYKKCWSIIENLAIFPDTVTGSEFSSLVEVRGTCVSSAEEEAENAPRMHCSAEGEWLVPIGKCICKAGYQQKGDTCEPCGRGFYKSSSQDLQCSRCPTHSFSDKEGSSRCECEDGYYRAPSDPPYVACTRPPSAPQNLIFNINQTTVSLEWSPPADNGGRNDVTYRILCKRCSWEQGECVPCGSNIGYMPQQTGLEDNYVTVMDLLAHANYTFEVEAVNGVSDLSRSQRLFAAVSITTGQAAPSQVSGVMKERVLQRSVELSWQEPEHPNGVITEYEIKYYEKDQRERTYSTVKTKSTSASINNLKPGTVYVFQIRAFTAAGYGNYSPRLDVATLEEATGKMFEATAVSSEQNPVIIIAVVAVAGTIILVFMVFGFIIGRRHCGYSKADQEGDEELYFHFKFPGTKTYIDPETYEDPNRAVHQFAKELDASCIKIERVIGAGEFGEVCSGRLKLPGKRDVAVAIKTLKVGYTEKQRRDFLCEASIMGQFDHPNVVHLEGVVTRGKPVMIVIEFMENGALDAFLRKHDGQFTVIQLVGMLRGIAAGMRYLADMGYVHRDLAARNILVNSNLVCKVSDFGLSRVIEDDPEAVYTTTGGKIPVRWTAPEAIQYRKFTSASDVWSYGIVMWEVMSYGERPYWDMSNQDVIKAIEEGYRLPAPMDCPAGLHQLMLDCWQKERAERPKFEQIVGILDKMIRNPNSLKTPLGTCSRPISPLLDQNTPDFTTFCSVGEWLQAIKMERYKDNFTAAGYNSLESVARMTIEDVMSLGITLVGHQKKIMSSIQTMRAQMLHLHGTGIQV

[10] = target: FES (human) (UniProt P07332)
[11] = target: FRK (human) (UniProt P42685)
[12] = target: GSK3B (human) (UniProt P49841)
Sequence of GSK3B (human) (P49841 whole entry, looked up): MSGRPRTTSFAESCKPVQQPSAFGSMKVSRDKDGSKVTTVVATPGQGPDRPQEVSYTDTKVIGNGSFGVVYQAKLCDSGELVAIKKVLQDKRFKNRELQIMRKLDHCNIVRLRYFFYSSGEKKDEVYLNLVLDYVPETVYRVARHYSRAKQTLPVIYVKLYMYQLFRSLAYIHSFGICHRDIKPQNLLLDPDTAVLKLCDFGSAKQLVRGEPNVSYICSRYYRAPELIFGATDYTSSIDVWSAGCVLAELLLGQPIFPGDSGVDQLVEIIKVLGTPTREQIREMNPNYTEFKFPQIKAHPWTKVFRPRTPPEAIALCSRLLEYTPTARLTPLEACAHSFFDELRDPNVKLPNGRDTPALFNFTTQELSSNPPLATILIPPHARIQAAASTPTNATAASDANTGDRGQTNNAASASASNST

[13] = target: IKBKB (human) (UniProt O14920)
[14] = target: MARK1 (human) (UniProt Q9P0L2)
[15] = target: MST4 (human) (UniProt Q9P289)
[16] = target: MUSK (human) (UniProt O15146)
[17] = target: NEK11 (human) (UniProt Q8NG66)
[18] = target: NEK7 (human) (UniProt Q8TDX7)
[19] = target: NEK9 (human) (UniProt Q8TD19)
[20] = target: NUAK1 (human) (UniProt O60285)
[21] = target: OXSR1 (human) (UniProt O95747)
[22] = target: PAK1 (human) (UniProt Q13153)
Sequence of PAK1 (human) (Q13153 whole entry, looked up): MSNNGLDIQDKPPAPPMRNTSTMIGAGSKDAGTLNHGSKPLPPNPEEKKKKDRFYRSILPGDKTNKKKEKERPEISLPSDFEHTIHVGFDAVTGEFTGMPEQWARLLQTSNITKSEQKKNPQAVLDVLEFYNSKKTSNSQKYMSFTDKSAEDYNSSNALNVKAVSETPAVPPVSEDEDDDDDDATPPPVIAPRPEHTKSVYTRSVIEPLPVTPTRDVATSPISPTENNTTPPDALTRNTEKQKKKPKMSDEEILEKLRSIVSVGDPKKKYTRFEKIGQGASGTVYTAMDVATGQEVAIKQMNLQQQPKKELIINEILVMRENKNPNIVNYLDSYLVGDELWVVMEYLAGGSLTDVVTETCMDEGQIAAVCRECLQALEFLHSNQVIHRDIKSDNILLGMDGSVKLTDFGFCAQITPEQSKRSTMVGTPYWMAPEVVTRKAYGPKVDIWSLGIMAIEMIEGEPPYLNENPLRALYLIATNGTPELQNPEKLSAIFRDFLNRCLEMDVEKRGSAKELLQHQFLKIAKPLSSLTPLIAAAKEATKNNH

[23] = target: PAK3 (human) (UniProt O75914)
[24] = target: PIM2 (human) (UniProt Q9P1W9)
[25] = target: PRKCD (human) (UniProt Q05655)
[26] = target: PTK2 (human) (UniProt Q05397)
Sequence of PTK2 (human) (Q05397 whole entry, looked up): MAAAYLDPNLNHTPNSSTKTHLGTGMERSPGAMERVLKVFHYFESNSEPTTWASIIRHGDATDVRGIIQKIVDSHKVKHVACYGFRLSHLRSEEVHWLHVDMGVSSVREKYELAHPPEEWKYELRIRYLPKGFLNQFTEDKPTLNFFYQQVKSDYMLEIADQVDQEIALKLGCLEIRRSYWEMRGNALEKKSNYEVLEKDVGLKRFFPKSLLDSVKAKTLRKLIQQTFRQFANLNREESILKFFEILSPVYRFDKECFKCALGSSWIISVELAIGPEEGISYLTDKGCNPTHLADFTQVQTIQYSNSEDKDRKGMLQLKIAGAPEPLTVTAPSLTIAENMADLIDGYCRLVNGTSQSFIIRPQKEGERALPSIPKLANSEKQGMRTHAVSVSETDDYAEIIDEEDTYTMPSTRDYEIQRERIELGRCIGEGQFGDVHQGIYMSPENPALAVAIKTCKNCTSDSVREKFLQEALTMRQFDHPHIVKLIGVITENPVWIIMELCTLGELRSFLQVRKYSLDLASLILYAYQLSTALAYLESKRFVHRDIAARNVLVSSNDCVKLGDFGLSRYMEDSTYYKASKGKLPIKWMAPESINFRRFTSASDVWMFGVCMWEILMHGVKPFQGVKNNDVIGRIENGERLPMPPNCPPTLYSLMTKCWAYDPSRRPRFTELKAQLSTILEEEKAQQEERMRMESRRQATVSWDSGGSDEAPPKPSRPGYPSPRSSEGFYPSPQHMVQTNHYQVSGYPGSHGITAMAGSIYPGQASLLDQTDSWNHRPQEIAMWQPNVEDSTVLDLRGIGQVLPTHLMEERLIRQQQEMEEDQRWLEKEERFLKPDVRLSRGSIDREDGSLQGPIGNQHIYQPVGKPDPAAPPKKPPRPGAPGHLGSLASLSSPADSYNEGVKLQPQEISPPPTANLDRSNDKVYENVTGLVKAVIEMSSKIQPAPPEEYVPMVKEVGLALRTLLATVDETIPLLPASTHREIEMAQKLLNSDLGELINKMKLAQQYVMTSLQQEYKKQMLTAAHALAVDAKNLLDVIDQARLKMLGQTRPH

[27] = target: PTK2B (human) (UniProt Q14289)
[28] = target: PTK6 (human) (UniProt Q13882)
[29] = target: RET (human) (UniProt P07949)
[30] = target: ROCK2 (human) (UniProt O75116)
[31] = target: RPS6KB2 (human) (UniProt Q9UBS0)
[32] = target: SRMS (human) (UniProt Q9H3Y6)
Sequence of SRMS (human) (Q9H3Y6 whole entry, looked up): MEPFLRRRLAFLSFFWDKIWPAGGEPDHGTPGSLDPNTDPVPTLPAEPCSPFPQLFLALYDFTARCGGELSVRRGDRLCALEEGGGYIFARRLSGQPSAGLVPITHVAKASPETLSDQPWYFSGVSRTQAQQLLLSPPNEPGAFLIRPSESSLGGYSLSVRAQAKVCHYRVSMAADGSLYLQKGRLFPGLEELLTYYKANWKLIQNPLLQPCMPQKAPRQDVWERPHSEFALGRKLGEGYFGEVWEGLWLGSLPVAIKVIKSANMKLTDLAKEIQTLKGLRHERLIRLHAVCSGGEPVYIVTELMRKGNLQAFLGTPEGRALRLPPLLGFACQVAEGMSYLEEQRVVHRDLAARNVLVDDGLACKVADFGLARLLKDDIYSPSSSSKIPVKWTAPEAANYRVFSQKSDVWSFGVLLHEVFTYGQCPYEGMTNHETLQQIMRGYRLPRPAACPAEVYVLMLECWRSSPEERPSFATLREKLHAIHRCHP

[33] = target: STK3 (human) (UniProt Q13188)
Sequence of STK3 (human) (Q13188 whole entry, looked up): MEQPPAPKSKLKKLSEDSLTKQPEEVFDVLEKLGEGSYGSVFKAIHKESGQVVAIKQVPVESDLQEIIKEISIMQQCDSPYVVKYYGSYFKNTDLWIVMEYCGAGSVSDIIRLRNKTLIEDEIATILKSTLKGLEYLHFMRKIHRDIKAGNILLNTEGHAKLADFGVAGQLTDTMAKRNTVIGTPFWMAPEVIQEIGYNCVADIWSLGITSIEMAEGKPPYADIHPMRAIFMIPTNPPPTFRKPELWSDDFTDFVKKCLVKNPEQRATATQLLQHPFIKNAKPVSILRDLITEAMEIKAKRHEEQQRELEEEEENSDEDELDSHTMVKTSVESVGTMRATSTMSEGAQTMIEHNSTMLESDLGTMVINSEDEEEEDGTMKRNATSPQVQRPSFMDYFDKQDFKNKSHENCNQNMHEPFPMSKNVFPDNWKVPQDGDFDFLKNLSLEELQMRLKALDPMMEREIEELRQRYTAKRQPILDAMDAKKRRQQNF

[34] = target: TAOK2 (human) (UniProt Q9UL54)
[35] = target: TSSK2 (human) (UniProt Q96PF2)
[36] = target: ULK1 (human) (UniProt O75385)
[37] = target: IKBKE (human) (UniProt Q14164)
[38] = target: MAPK9 (human) (UniProt P45984)
[39] = target: MATK (human) (UniProt P42679)
[40] = target: MET (human) (UniProt P08581)
[41] = target: STK11 (human) (UniProt Q15831)

**Q.** `C#Cc1cccc(Nc2ncnc3cc(OCCOC)c(OCCOC)cc23)c1` was tested. Which residual activity [1] did it give?
**A.** The residual activity was 92.9%.

**Q.** And the residual activity [2]?
**A.** Its residual activity is 111%.

**Q.** What about the residual activity [3] of the same compound?
**A.** The residual activity was 95.1%.

**Q.** What about the residual activity [4] of the same compound?
**A.** Its residual activity is 115%.

**Q.** What about the residual activity [5] of the same compound?
**A.** The residual activity was 88.5%.

**Q.** What about the residual activity [6] of the same compound?
**A.** The residual activity was 98.3%.

**Q.** What about the residual activity [7] of the same compound?
**A.** The residual activity was 93.7%.

**Q.** What about the residual activity [8] of the same compound?
**A.** The residual activity was 94.5%.

**Q.** What about the residual activity [9] of the same compound?
**A.** The residual activity was 69.8%.

**Q.** And the residual activity [10]?
**A.** The residual activity was 105%.

**Q.** What about the residual activity [11] of the same compound?
**A.** Its residual activity is 102%.

**Q.** And the residual activity [12]?
**A.** Its residual activity is 102%.

**Q.** What about the residual activity [13] of the same compound?
**A.** Its residual activity is 83.5%.

**Q.** What about the residual activity [14] of the same compound?
**A.** The residual activity was 130%.

**Q.** And the residual activity [15]?
**A.** The residual activity was 106%.

**Q.** What about the residual activity [16] of the same compound?
**A.** Its residual activity is 94.6%.

**Q.** And the residual activity [17]?
**A.** The residual activity was 114%.

**Q.** And the residual activity [18]?
**A.** Its residual activity is 97.4%.

**Q.** And the residual activity [19]?
**A.** The residual activity was 99.5%.

**Q.** And the residual activity [20]?
**A.** Its residual activity is 98%.

**Q.** What about the residual activity [21] of the same compound?
**A.** The residual activity was 102%.

**Q.** What about the residual activity [22] of the same compound?
**A.** The residual activity was 109%.

**Q.** And the residual activity [23]?
**A.** Its residual activity is 106%.

**Q.** What about the residual activity [24] of the same compound?
**A.** The residual activity was 97.9%.

**Q.** What about the residual activity [25] of the same compound?
**A.** The residual activity was 104%.

**Q.** What about the residual activity [26] of the same compound?
**A.** The residual activity was 108%.

**Q.** And the residual activity [27]?
**A.** The residual activity was 97.6%.

**Q.** What about the residual activity [28] of the same compound?
**A.** The residual activity was 85.9%.

**Q.** And the residual activity [29]?
**A.** Its residual activity is 48.6%.

**Q.** And the residual activity [30]?
**A.** Its residual activity is 91%.

**Q.** What about the residual activity [31] of the same compound?
**A.** Its residual activity is 103%.

**Q.** What about the residual activity [32] of the same compound?
**A.** The residual activity was 93.2%.

**Q.** What about the residual activity [33] of the same compound?
**A.** Its residual activity is 94.9%.

**Q.** And the residual activity [34]?
**A.** Its residual activity is 106%.

**Q.** What about the residual activity [35] of the same compound?
**A.** The residual activity was 87.6%.

**Q.** And the residual activity [36]?
**A.** Its residual activity is 113%.

**Q.** `CS(=O)c1ccc(-c2nc(-c3ccc(F)cc3)c(-c3ccncc3)[nH]2)cc1` (configuration not stated) was tested. Which residual activity [1] did it give?
**A.** Its residual activity is 101%.

**Q.** What about the residual activity [2] of the same compound?
**A.** Its residual activity is 99.3%.

**Q.** What about the residual activity [3] of the same compound?
**A.** The residual activity was 103%.

**Q.** And the residual activity [4]?
**A.** The residual activity was 82.2%.

**Q.** What about the residual activity [5] of the same compound?
**A.** Its residual activity is 94.3%.

**Q.** What about the residual activity [6] of the same compound?
**A.** Its residual activity is 95.7%.

**Q.** What about the residual activity [7] of the same compound?
**A.** Its residual activity is 104%.

**Q.** And the residual activity [8]?
**A.** Its residual activity is 97%.

**Q.** And the residual activity [9]?
**A.** Its residual activity is 83.1%.

**Q.** And the residual activity [10]?
**A.** The residual activity was 97.3%.

**Q.** And the residual activity [11]?
**A.** The residual activity was 87.2%.

**Q.** And the residual activity [12]?
**A.** Its residual activity is 80.2%.

**Q.** What about the residual activity [13] of the same compound?
**A.** Its residual activity is 106%.

**Q.** And the residual activity [37]?
**A.** The residual activity was 98%.

**Q.** What about the residual activity [38] of the same compound?
**A.** Its residual activity is 100%.

**Q.** And the residual activity [14]?
**A.** Its residual activity is 105%.

**Q.** And the residual activity [39]?
**A.** Its residual activity is 95.6%.

**Q.** And the residual activity [40]?
**A.** The residual activity was 103%.

**Q.** And the residual activity [15]?
**A.** Its residual activity is 96.8%.

**Q.** And the residual activity [16]?
**A.** The residual activity was 90.3%.

**Q.** And the residual activity [17]?
**A.** The residual activity was 81.3%.

**Q.** What about the residual activity [18] of the same compound?
**A.** The residual activity was 98.9%.

**Q.** What about the residual activity [19] of the same compound?
**A.** Its residual activity is 99.1%.

**Q.** What about the residual activity [20] of the same compound?
**A.** Its residual activity is 94.4%.

**Q.** And the residual activity [21]?
**A.** Its residual activity is 102%.

**Q.** And the residual activity [22]?
**A.** The residual activity was 99.2%.

**Q.** What about the residual activity [23] of the same compound?
**A.** The residual activity was 102%.

**Q.** What about the residual activity [24] of the same compound?
**A.** The residual activity was 104%.

**Q.** And the residual activity [25]?
**A.** Its residual activity is 107%.

**Q.** What about the residual activity [26] of the same compound?
**A.** The residual activity was 95.5%.

**Q.** And the residual activity [27]?
**A.** Its residual activity is 92.5%.

**Q.** And the residual activity [28]?
**A.** Its residual activity is 54.2%.

**Q.** And the residual activity [29]?
**A.** The residual activity was 85.1%.

**Q.** And the residual activity [30]?
**A.** The residual activity was 98.4%.

**Q.** What about the residual activity [31] of the same compound?
**A.** Its residual activity is 97.2%.

**Q.** What about the residual activity [32] of the same compound?
**A.** Its residual activity is 102%.

**Q.** And the residual activity [41]?
**A.** The residual activity was 81.6%.

**Q.** What about the residual activity [33] of the same compound?
**A.** The residual activity was 102%.

**Q.** And the residual activity [34]?
**A.** The residual activity was 94%.

**Q.** What about the residual activity [35] of the same compound?
**A.** The residual activity was 95.7%.

**Q.** What about the residual activity [36] of the same compound?
**A.** The residual activity was 89.3%.
